Results as given in US20120225097A1, “PIPERAZINECARBOXAMIDE DERIVATIVE USEFUL AS A MODULATOR OF FATTY ACID AMIDE HYDROLASE (FAAH)” (priority 2009, published 2012).
Where “and” joins values, the source holds several entries; their conditions need not be identical. Equal values may be shown once. Where a name gives a salt, the structure may show the parent alone.

Assays:
[1] = target: T1, human FAAH (Homo sapiens, UniProt O00519); assay: Assay Method 1: FAAH assay, anandamide hydrolysis in cell homogenate; assay type: biochemical; settings: average value (standard error of the mean in parenthesis); 3H-AEA 80 nM, 1 h rt
T1 construct: expressed in transfected cells
T1 sequence (O00519 1-579): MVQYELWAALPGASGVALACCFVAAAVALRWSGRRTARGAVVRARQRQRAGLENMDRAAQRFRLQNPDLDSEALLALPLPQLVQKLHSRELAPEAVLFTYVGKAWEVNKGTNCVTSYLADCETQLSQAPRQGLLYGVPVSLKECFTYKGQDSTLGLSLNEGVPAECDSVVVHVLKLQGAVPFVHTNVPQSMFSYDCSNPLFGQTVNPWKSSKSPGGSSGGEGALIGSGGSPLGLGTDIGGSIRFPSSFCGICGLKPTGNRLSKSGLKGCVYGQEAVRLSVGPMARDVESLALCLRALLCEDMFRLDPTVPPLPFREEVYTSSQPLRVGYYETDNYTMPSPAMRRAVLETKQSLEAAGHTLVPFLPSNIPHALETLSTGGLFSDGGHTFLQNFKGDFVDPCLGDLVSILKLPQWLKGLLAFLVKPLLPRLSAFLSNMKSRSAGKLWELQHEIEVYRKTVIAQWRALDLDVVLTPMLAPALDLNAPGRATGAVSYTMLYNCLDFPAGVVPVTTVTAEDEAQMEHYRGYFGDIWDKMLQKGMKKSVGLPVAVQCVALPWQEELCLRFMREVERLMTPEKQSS
Protocol: A. Transfection of Cells with Human FAAH
A 10-cm tissue culture dish with a confluent monolayer of SK-N-MC cells was split 2 days (d) prior to transfection. Using sterile technique, the media was removed and the cells were detached from the dish by the addition of trypsin. One fifth of the cells were then placed onto a new 10-cm dish. Cells were grown in a 37° C. incubator with 5% CO2 in Minimal Essential Media Eagle with 10% Fetal Bovine Serum. After 2 d, cells were approximately 80% confluent. These cells were removed from the dish with trypsin and pelleted in a clinical centrifuge. The pellet was re-suspended in 400 μL complete media and transferred to an electroporation cuvette with a 0.4 cm gap between the electrodes. Supercoiled human FAAH cDNA (1 μg), corresponding to NCBI accession NM_001441, was added to the cells and mixed. The voltage for the electroporation was set at 0.25 kV, and the capacitance was set at 960 μF. After electroporation, the cells were diluted into complete media (10 mL) and plated onto four 10-cm dishes. Due to variability in the efficiency of electroporation, four different concentrations of cells were plated. The ratios used were 1:20, 1:10, and 1:5, with the remainder of the cells being added to the fourth dish. The cells were allowed to recover for 24 h before adding the selection media (complete media with 600 μg/mL G418). After 10 d, dishes were analyzed for surviving colonies of cells. Dishes with well-isolated colonies were used. Cells from individual colonies were isolated and tested.
T84 frozen cell pellets or transfected SK-N-MC cells (contents of 1×15 cm culture dishes) were homogenized in 50 mL of FAAH assay buffer (125 mM Tris, 1 mM EDTA, 0.2% Glycerol, 0.02% Triton X-100, 0.4 mM Hepes, pH 9). The assay mixture consisted of 50 μL of the cell homogenate, 10 μL of the test compound, and 40 μL of anandamide [1-^3H-ethanolamine] (^3H-AEA, Perkin-Elmer, 10.3 Ci/mmol), which was added last, for a final tracer concentration of 80 nM. The reaction mixture was incubated at rt for 1 h. […]

[2] = test system: Langendorff isolated heart; assay: Assay Method 3: Langendorff isolated heart protocol; set-up: species or system Sprague-Dawley rats; settings: isolated rat heart; for effect on left ventricular developed pressure (LVDevP): 30 μM; for effect on left ventricular systolic pressure (LVSP): maximum concentration tested 30 μM; for hearts showing greater than 30% slowing of heart rate: perfused at 30 μM; for hearts showing greater than 30% heart rate slowing: bath concentration 26 μM
Protocol: Langendorff Isolated Heart Protocol
Male Sprague-Dawley rats (300-500 g) were anesthetized by an intraperitoneal injection of sodium pentobarbital (50 mg/kg), and then euthanized via cardiectomy. Hearts were rapidly removed, mounted on a
A ventricular drain and fluid-filled latex balloon was secured in the left ventricle with a purse string suture at the atrial appendage. Hearts were not paced. […] The hearts were maintained at approximately 37° C. while suspended in a glass chamber and bathed with Krebs-Henseleit buffer. The latex balloon in the left ventricle (LV) was expanded with water to achieve a LV end-diastolic pressure (LVEDP) of approximately 10-15 mmHg. The balloon was connected via tubing to a pressure transducer to measure LVEDP, LV […] pressure (LVDP) and LV systolic pressure (LVSP). Coronary perfusion pressure (CPP) was measured with a pressure transducer connected to a side-arm port of the aortic cannula.
Individual hearts were equilibrated for approximately 10-15 minutes. Following this equilibration period, baseline measurements were collected for approximately 15 minutes. After this period, a first heart was exposed to test compound for a total 75 min (comprising five increasing concentrations of test compound for approximately 15 minutes at each concentration) with measurements collected continuously. Test compound was dissolved in DMSO and then added directly to the experiment perfusion medium.
A one mL sample of perfusion medium was taken from the heart exudate at the end of each 15 minute monitoring period. The samples were frozen on dry ice, stored in a freezer set to maintain −80° C. until analysis. At the conclusion of the experiment, the hearts were frozen with liquid nitrogen and stored in a freezer set to maintain a temperature of −80° C. until analyzed.

In the case of `O=C(Nc1cccnc1)N1CCN(Cc2cccc(Oc3ccc(C(F)(F)F)cc3)c2)CC1` [Example 1, N-Pyridin-3-yl-4-{3-[4-(trifluoromethyl)phenoxy]benzyl}piperazine-1-carboxamide, bis-hydrochloride dihydrate], the IC50 [1] is reported as 1 nM, the “effect on left ventricular developed pressure (LVDevP)” value [2] is reported as “decrease” and the “effect on left ventricular systolic pressure (LVSP)” value (“effect … (LVSP)” for short) ([2]; listed as N-pyridin-3-yl-4-{3-[4-(trifluoromethyl)phenoxy]benzyl}piperazine-1-carboxamide , bis-hydrochloride dihydrate) is reported as “did not induce an abrupt increase”. The “effect … (LVSP)” value ([2]; listed as N-pyridin-3-yl-4-{3-[4-(trifluoromethyl)phenoxy]benzyl}piperazine-1-carboxamide, bis-hydrochloride dihydrate) was “did not” and the “hearts showing greater than 30% slowing of heart rate” value [2] was “two of five”.

`O=C(Nc1cccnc1)N1CCN(Cc2cccc(Oc3ccc(Cl)cc3)c2)CC1` [4-({3-[(4-Chlorophenyl)oxy]phenyl}methyl)-N-pyridin-3-ylpiperazine-1-carboxamide] was tested, and the IC50 [1] was 2.4 nM, the “effect on left ventricular developed pressure (LVDevP)” value [2] was “near-doubling” and the “effect … (LVSP)” value [2] was “marked increase”. For the same compound, the “hearts showing greater than 30% slowing of heart rate” value [2] was “all hearts (n=4) and 4/4”.

`O=C(Nc1cccnc1)N1CCN(Cc2cccc(Oc3ccc(Br)cc3)c2)CC1` [4-[3-(4-Bromophenoxy)benzyl]-N-pyridin-3-ylpiperazine-1-carboxamide] was tested, and the IC50 [1] was 1 nM, the “hearts showing greater than 30% heart rate slowing” value [2] was 3/4 and the “hearts showing greater than 30% heart rate slowing” value ([2]; listed as 4-[3-(4-bromophenoxy)benzyl]-N-pyridin-3-ylpiperazine-1-carboxamide bis-hydrochl) was “three of four”.
